pIC50, pKi: −log10 of the molar value. Like-named read-outs stand apart in the source and are kept apart here. *1 amine or outer side, *2 acyl side, *3 side chain or, on linkers, in order; H or OH if unused. The star is where a group is joined. Lys(5-TAMRA) = CN(C)c1ccc2c(-c3ccc(C(=O)NCCCC[C@H](N[*:1])C(=O)[*:2])cc3C(=O)[O-])c3ccc(N(C)C)cc3[o+]c2c1; 5FAM = O=C1OC2(c3ccc(O)cc3Oc3cc(O)ccc32)c2ccc(C(=O)*)cc21
Columns and labels:
Format in all cases: biochemical
human plasma kallikrein = human plasma kallikrein (Homo sapiens, UniProt P03952); assay: Kallikrein inhibition FLINT assay with quenched AMC peptide substrate Z-Gly-Pro-Arg-AMC (end point EP or kinetic KIN reads)
human plasma kallikrein, sequence (P03952 391-638 limits assumed): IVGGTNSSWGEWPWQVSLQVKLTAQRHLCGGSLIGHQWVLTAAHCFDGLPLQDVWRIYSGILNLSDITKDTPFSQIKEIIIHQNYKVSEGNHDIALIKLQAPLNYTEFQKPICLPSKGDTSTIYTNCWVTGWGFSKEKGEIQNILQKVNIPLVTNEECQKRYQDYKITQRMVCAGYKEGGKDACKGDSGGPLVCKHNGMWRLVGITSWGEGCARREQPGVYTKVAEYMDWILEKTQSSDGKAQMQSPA
human plasma kallikrein, sequence (P03952 20-390 partner limits assumed): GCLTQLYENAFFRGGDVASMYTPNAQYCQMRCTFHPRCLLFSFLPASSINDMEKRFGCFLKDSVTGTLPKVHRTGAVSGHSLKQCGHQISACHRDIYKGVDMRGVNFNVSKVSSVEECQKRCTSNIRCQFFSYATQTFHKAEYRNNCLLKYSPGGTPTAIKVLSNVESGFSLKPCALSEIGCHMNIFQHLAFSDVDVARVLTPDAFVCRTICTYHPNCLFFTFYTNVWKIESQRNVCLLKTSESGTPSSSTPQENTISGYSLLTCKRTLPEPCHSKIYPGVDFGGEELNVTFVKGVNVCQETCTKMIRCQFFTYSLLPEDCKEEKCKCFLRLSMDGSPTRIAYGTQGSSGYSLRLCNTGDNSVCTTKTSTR
Procedure, shortened: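 Enzyme and compound were preincubated 30 min before adding 50 μM AMC substrate in pH 7.5 Tris/NaCl/CaCl2/BSA/CHAPS buffer. AMC release was read at 30 min endpoint or every 5 min.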

Factor XIa [1] = target: T1, Factor XIa (Homo sapiens, UniProt P03951); assay: Factor XIa inhibition FLINT assay with fluorophore-quencher peptide substrate 5Fam-[…]-K5Tamra (end point EP or kinetic KIN reads); conditions: end point read at 30 min; read-out: FXIa (EP) IC50
T1 sequence (P03951 388-625 limits assumed): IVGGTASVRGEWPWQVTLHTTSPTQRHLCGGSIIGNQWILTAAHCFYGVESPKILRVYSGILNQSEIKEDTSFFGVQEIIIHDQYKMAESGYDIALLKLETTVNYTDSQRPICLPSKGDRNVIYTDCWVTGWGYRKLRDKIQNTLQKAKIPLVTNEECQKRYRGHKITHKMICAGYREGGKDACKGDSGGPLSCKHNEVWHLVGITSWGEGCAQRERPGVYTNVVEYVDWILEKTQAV
T1 sequence (P03951 19-387 partner limits assumed): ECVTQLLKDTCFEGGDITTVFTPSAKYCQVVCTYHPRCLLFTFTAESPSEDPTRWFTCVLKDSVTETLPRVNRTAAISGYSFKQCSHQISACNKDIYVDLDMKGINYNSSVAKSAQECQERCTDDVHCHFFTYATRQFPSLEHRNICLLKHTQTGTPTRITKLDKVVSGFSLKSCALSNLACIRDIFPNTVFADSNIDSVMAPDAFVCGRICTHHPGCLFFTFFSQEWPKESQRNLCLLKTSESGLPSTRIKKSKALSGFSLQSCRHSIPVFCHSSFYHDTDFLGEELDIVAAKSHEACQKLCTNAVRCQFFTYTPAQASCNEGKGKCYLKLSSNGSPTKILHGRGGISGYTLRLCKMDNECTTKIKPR
Excerpt: Factor XIa inhibition assay utilizing a fluorophore-quencher pair peptide substrate A fluorescence intensity (FLINT) based assay was used to monitor inhibition of Factor XIa. The peptide substrate, 5Fam-[…]-K5Tamra (purchased from New England Peptide) was chosen based on the FXI sequence. Conversion of zymogen FXI to its activated form, FXIa, occurs by proteolytic cleavage by […] at two sites, Arg146 and Arg180. The custom peptide used in this assay was based on the Arg146 cleavage site of FXI. The peptide substrate was designed with a fluorophore-quencher pair, where the fluorescence is quenched until FXIa cleaves the 8-mer peptide after the Arg residue.
Test compound(s) were run in an 11-point, 3-fold serial dilution with a final top compound concentration of 100 nM. Final DMSO in assay was 2%. FXIa was preincubated with compound for 30-minutes and then substrate was added to initiate the reaction. The assay was run with either end point (EP) reads at 30 min or kinetic (KIN) reads at 5 min intervals over 30 minutes. […] More specifically, the assay was run as follows: • 100 nL of 0.01 mM test compound was dispensed into black 384-well non-binding Greiner BioOne 784900 plate for 0.1 μM final concentration; • 5 μL of 1× assay buffer was dispensed to column 24 (low control) and 5 μL 2× Factor XIa solution was dispensed to columns 1-23 (column 23 high control); • the plate was centrifuged with a “cover” plate at 500 rpm for 1 min • the plate was pre-incubated for 30 minutes at room temperature with plate covered; • 5 μL of 2×5Fam-[…]-K5Tamra peptide substrate was dispensed into the entire plate, columns 1-24; • the plate was centrifuged with a “cover” plate at 500 rpm for 1 min; • the plate was read monitoring fluorescence intensity on the BMG PHERAStar at room temperature, using fluorescence module 485 nm/520 nm.
Percent inhibition (IC50) curves were generated per compound tested, and data was analyzed using a 4-parameter logistic fit using GeneData Screener. The relative fluorescence unit (RFU) values were normalized to percent inhibition using the following equation: % inhibition=((HC−LC)−(compound−LC)/(HC−LC))*100
An 11-point dose response curve for the test compound(s) was generated using GENDATA to determine IC50 value based on the following equation: Y=Bottom+(Top−Bottom)/(1+10^((log IC50−X)*HillSlope))
Results listed in columns with […] designation were measured using endpoint reads where a single fluorescence reading was measured for each well at a 30 min timepoint.

Factor XIa [2] = target: T1, Factor XIa; assay: as above; conditions: fit to a substrate inhibition model
[3] = end point read at 30 min, read-out: Kallikrein (EP) IC50
[4] = kinetic reads at 5 min intervals over 30 min, read-out: Kallikrein (KIN) IC50

Compound: O=C(O)c1ccc(-c2cnn([C@H](CC3CC3)c3ccc(-c4cc(Cl)ccc4-n4cnnn4)c[n+]3[O-])c2)cc1 [Example P6]
- pIC50 (human plasma kallikrein; [3]): 7.18
- pIC50 (human plasma kallikrein; [4]): 7.07
- pIC50 (Factor XIa [1]): 8.68

Compound: O=C(O)c1ccc(-c2cnn(C(Cc3ccc(F)cc3)c3ccc(-c4cc(Cl)ccc4-n4cnnn4)c[n+]3[O-])c2)cc1 (stereo not shown) [Example P7]
- pIC50 (human plasma kallikrein; [3]): 8.39
- pIC50 (human plasma kallikrein; [4]): 8.89
- pIC50 (Factor XIa [1]): 9.10

Compound: O=C(O)c1ccc(-c2cnn(C(CC3CC3)c3ccc(-c4c(-n5cnnn5)ccc(Cl)c4F)c[n+]3[O-])c2)cc1 (stereo not shown) [Example P9]
- pIC50 (human plasma kallikrein; [3]): 7.43
- pIC50 (Factor XIa [1]): 9.54

Compound: Nc1ccc(-c2cnn(C(CC3CC3)c3ccc(-c4cc(Cl)ccc4-n4cnnn4)c[n+]3[O-])c2)c(Cl)n1 (single isomer, unassigned) [Example P49]
- pIC50 (human plasma kallikrein; [3]): 7.10
- pIC50 (Factor XIa [1]): 8.47

Compound: O=C(O)c1ccc(-c2cnn(C(Cc3ccc(F)cc3)c3ccc(-c4cc(Cl)ccc4OCC(F)(F)F)c[n+]3[O-])c2)cc1 (stereo not shown) [Example Q2]
- pIC50 (human plasma kallikrein; [3]): 6.17
- pIC50 (Factor XIa [1]): 7.39

Compound: Nc1ccc(-c2cnn(C(CC3CC3)c3ccc(-c4cc(Cl)ccc4-n4cnnn4)c[n+]3[O-])c2)c(Cl)n1 (stereo not shown) [Example P19]
- pIC50 (human plasma kallikrein; [3]): 6.87
- pIC50 (Factor XIa [1]): 8.47

Compound: O=C(O)c1ccc(-c2cnn(C(CC3CC3)c3ccc(-c4cc(Cl)ccc4-n4cc(Cl)nn4)c[n+]3[O-])c2)cc1 (stereo not shown) [Example P4]
- pIC50 (human plasma kallikrein; [3]): 6.29
- pIC50 (Factor XIa [1]): 8.00

Compound: CN1CCc2cc(-c3cnn(C(CC4CC4)c4ccc(-c5cc(Cl)ccc5-n5cnnn5)c[n+]4[O-])c3)ccc2C1=O (stereo not shown) [Example P15]
- pIC50 (human plasma kallikrein; [3]): 6.22
- pIC50 (Factor XIa [1]): 7.25

Compound: CC(C)(C)OCCC(c1ccc(-c2cc(Cl)ccc2-n2cnnn2)c[n+]1[O-])n1cc(-c2ccc(C(=O)O)cc2)cn1 (stereo not shown) [Example P8]
- pIC50 (human plasma kallikrein; [3]): 6.48
- pIC50 (Factor XIa [1]): 8.57

Compound: [O-][n+]1cc(-c2cc(Cl)ccc2-n2cnnn2)ccc1C(Cc1ccc(F)cc1)n1cc(-c2ccc(F)cc2)cn1 (stereo not shown) [Example P22]
- pIC50 (human plasma kallikrein; [3]): 7.35
- pIC50 (Factor XIa [1]): 8.00

Compound: 5Fam-KLTRAETV-K5Tamra (5FAM-KLTRAETV-{Lys(5-TAMRA)}; SMILES CC(C)C[C@H](NC(=O)[C@H](CCCCN)NC(=O)c1ccc2c(c1)C(=O)OC21c2ccc(O)cc2Oc2cc(O)ccc21)C(=O)N[C@H](C(=O)N[C@@H](CCCNC(=N)N)C(=O)N[C@@H](C)C(=O)N[C@@H](CCC(=O)O)C(=O)N[C@H](C(=O)N[C@H](C(=O)N[C@@H](CCCCNC(=O)c1ccc(-c2c3ccc(N(C)C)cc3[o+]c3cc(N(C)C)ccc23)c(C(=O)[O-])c1)C(=O)O)C(C)C)[C@@H](C)O)[C@@H](C)O) ["The peptide substrate ; (purchased from New England Peptide)", "designed with a fluorophore-quencher pair", based on the Arg146 cleavage site of FXI]
- Km (Factor XIa [2]; peptide substrate of FXIa): 12.4 µM
- kcat (Factor XIa [2]; peptide substrate of FXIa): 0.86 s⁻¹
- pKi (Factor XIa [2]; substrate inhibition constant): 4.21

Compound: Nc1ccc(-c2cnn(C(Cc3ccccc3)c3ccc(-c4cc(Cl)ccc4-n4cnnn4)c[n+]3[O-])c2)c(Cl)n1 (stereo not shown) [Example P50]
- pIC50 (human plasma kallikrein; [3]): 7.33
- pIC50 (Factor XIa [1]): 8.46

Compound: Nc1ccc(-c2cnn(C(CC3CC3)c3ccc(-c4c(-n5cnnn5)ccc(Cl)c4F)c[n+]3[O-])c2)cc1 (stereo not shown) [Example P21]
- pIC50 (human plasma kallikrein; [3]): 6.78
- pIC50 (Factor XIa [1]): 8.00

Compound: O=C1OCc2cc(-c3cnn(C(CC4CC4)c4ccc(-c5cc(Cl)ccc5-n5cnnn5)c[n+]4[O-])c3)ccc21 (stereo not shown) [Example P16]
- pIC50 (human plasma kallikrein; [3]): 6.40
- pIC50 (Factor XIa [1]): 7.25

Compound: COC(=O)Nc1ccc(-c2cnn(C(CC3CC3)c3c(F)cc(-c4c(-n5cnnn5)ccc(Cl)c4F)c[n+]3[O-])c2)cc1 (stereo not shown) [Example P30]
- pIC50 (human plasma kallikrein; [3]): 7.24
- pIC50 (Factor XIa [1]): 8.48

Compound: COC(=O)Nc1ccc(-c2cnn(C(CC3CC3)c3ccc(-c4cc(Cl)ccc4-n4cc(Cl)nn4)c[n+]3[O-])c2)cc1 (stereo not shown) [Example P14]
- pIC50 (human plasma kallikrein; [3]): 6.02
- pIC50 (Factor XIa [1]): 7.03

Compound: COC(=O)Nc1ccc(-c2cnn(C(Cc3ccccc3)c3ccc(-c4cc(Cl)c(F)cc4-n4cnnn4)c[n+]3[O-])c2)cc1 (stereo not shown) [Example P46]
- pIC50 (human plasma kallikrein; [3]): 6.47
- pIC50 (Factor XIa [1]): 7.67

Compound: CN1Cc2cc(-c3cnn(C(CC4CC4)c4ccc(-c5cc(Cl)ccc5-n5cnnn5)c[n+]4[O-])c3)ccc2C1=O (stereo not shown) [Example P12]
- pIC50 (human plasma kallikrein; [3]): 6.43
- pIC50 (Factor XIa [1]): 7.14

Compound: O=C(O)c1ccc(-c2cnn(C(CC3CC3)c3ccc(-c4cc(Cl)ccc4-n4cnnn4)c[n+]3[O-])c2)cc1 (stereo not shown) [Example P1]
- pIC50 (human plasma kallikrein; [3]): 6.90
- pIC50 (human plasma kallikrein; [4]): 6.80
- pIC50 (Factor XIa [1]): 8.59

Compound: O=C(O)c1cccc(-c2cnn(C(CC3CC3)c3c(F)cc(-c4cc(Cl)ccc4-n4cnnn4)c[n+]3[O-])c2)c1 (stereo not shown) [Example P11]
- pIC50 (human plasma kallikrein; [3]): 7.09
- pIC50 (Factor XIa [1]): 8.16

Compound: COC(=O)Nc1ccc(-c2cnn(C(Cc3ccc(F)cc3)c3ccc(-c4cc(Cl)ccc4C#N)c[n+]3[O-])c2)cc1 (stereo not shown) [Example Q1]
- pIC50 (human plasma kallikrein; [3]): 6.45
- pIC50 (Factor XIa [1]): 6.21

Compound: CC(=O)Nc1ccc(-c2cnn(C(CC3CC3)c3ccc(-c4c(-n5cnnn5)ccc(Cl)c4F)c[n+]3[O-])c2)cc1 (stereo not shown) [Example P23]
- pIC50 (human plasma kallikrein; [3]): 7.18
- pIC50 (Factor XIa [1]): 8.36

Compound: Nc1ccc(-c2cnn(C(CC3CC3)c3ccc(-c4c(-n5cnnn5)ccc(Cl)c4F)c[n+]3[O-])c2)cn1 (stereo not shown) [Example P24]
- pIC50 (human plasma kallikrein; [3]): 6.94
- pIC50 (Factor XIa [1]): 8.31

Compound: O=C(O)c1cccc(-c2cnn(C(CC3CC3)c3ccc(-c4cc(Cl)ccc4-n4cnnn4)c[n+]3[O-])c2)c1 (stereo not shown) [Example P3]
- pIC50 (human plasma kallikrein; [3]): 7.01
- pIC50 (Factor XIa [1]): 8.03

Compound: CC(N)c1ccc(-c2cnn(C(Cc3ccccc3)c3ccc(-c4cc(Cl)ccc4-n4cnnn4)c[n+]3[O-])c2)cc1 (stereo not shown) [Example P47]
- pIC50 (human plasma kallikrein; [3]): 6.39
- pIC50 (Factor XIa [1]): 7.65

Compound: CS(=O)(=O)NC(=O)c1ccc(-c2cnn(C(CC3CC3)c3ccc(-c4cc(Cl)ccc4-n4cnnn4)c[n+]3[O-])c2)cc1 (stereo not shown) [Example P18]
- pIC50 (human plasma kallikrein; [3]): 6.40
- pIC50 (Factor XIa [1]): 8.51

Compound: COC(=O)Nc1ccc(-c2cnn(C(Cc3ccccc3)c3ccc(-c4cc(Cl)ccc4-n4cnnn4)c[n+]3[O-])c2)cc1 (stereo not shown) [Example P39]
- pIC50 (human plasma kallikrein; [3]): 7.59
- pIC50 (Factor XIa [1]): 8.42

Compound: COCCC(c1ccc(-c2c(-n3cnnn3)ccc(Cl)c2F)c[n+]1[O-])n1cc(-c2ccc(NC(=O)OC)cc2)cn1 (racemic) [Example P38]
- pIC50 (human plasma kallikrein; [3]): 7.25
- pIC50 (Factor XIa [1]): 8.49

Compound: Nc1ccc(-c2cnn(C(CC3CC3)c3ccc(-c4c(-n5cnnn5)ccc(Cl)c4F)c[n+]3[O-])c2)c[n+]1[O-] (stereo not shown) [Example P25]
- pIC50 (human plasma kallikrein; [3]): 6.13
- pIC50 (Factor XIa [1]): 8.05

Compound: O=C(O)c1ccc(-c2cnn(C(c3cn(-c4ccccc4)nn3)c3ccc(-c4c(-n5cnnn5)ccc(Cl)c4F)c[n+]3[O-])c2)cc1 (stereo not shown) [Example P35]
- pIC50 (human plasma kallikrein; [3]): 6.10
- pIC50 (Factor XIa [1]): 6.77

Source: patent publication US11814364B2, “Pyridine N-oxide derivatives useful as factor XIa inhibitors” (Janssen Pharmaceutica NV, priority 2021, dated 2023)
